# Columns and labels:
# [1] = system: female Sprague Dawley rats fed on a high-fat powdered diet; assay: Body weight, food intake, body composition and liver triglycerides, once daily dosing up to 15 days, high-fat diet rats (Example 2.1); assay type: in vivo, rat; details: Olanzapine 3 mg/kg po
# Procedure: Body weight and food and water intake were assessed daily.
# Animals: Seventy-four (2 spares) female Sprague Dawley rats (weight range 200-300 g) were ordered from Charles River, Margate, Kent. Rats were singly housed in cages with sawdust bedding and enrichment at an ambient temperature of 21 ± 2° C. Upon arrival (Thursday), rats were weighed and given wet mash to aid recovery from transport. Rats were weighed the following day and on the Monday of the following week. Animals were maintained on a reverse-phase light-dark cycle (lights off for 8 hours from 10:00-18 :00 h) during which time the room was illuminated by red light. Rats were weighed on the Friday and Monday of the following week. […] Except for 12 animals (Group F), all animals had free access to a high-fat powdered diet (VRF1 plus 20% lard). […] All rats had access to filtered water at all times. The diets were contained in glass feeding jars with aluminum lids (Solmedia Laboratory Suppliers. Romford. Essex). […] Animals were accustomed to these conditions for at least two weeks before experimentation.
# Experimental Procedure: Animals underwent a 3-day baseline run-in period during which time all rats were dosed once a day with vehicle. Dosing was timed to start at approximately 08:45 so that the mid-point was approximately the time of lights out. Animals, food and water were weighed at the time of dosing. Towards the end of the baseline period, animals were weighed (to the nearest 0.1 g using an electronic top-pan balance) and allocated by a statistician. The spare animals were humanely withdrawn from the study.
# Dosing (in a randomized order) began at approximately 08:45 h each day (0 h), i.e., the mid-point of dosing is approximately at the time of lights out. Body weight, food and water intake was recorded daily at the time of dosing. All rats were observed before and after dosing and comments on condition were noted as appropriate. On the afternoon of Day 14 (approx. 16:00) animals were fasted to a timed schedule. The experiment ended the following morning on Day 15. On the morning of Day 15, final readings were undertaken 16 hour post-fast (i.e., body weight measurements). Animals were then dosed (as described). Four hours later, a blood sample (1 mL) was taken from the lateral tail vein into tubes containing lithium heparin. […] Animals were then terminated by a Schedule 1 method (exposure to an increasing concentration of C02 with death confirmed by cervical dislocation). A terminal blood sample (circa 4 mL) was taken into an EDTA-coated tube and a single plasma aliquot (approximately 1 mL) was stored frozen (approx. -80° C.) in a clean aliquot tube. The liver was dissected and the caudate lobe removed. Both the caudate lobe and the remaining liver were weighed and stored frozen separately (on dry ice and then transferred to a freezer at approx. -80° C.). The caudate lobe underwent option further analysis of liver triglycerides.
# [2] = system: female Sprague Dawley rats previously treated with olanzapine; assay: Body weight, food intake, body composition and liver triglycerides of rats previously treated with olanzapine and switched (Example 2.2); assay type: in vivo, rat
# Procedure: Rats were singly housed in cages with sawdust bedding and enrichment at an ambient temperature of 21±2° C. Upon arrival (Thursday), rats were weighed and given wet mash to aid recovery from transport. Rats were weighed the following day and the Monday of the following week. Animals were maintained on a reverse-phase light-dark cycle (lights off for 8 h from 10:00-18:00 h) during which time the room was illuminated by red light. Rats were weighed on the Friday and Monday of the following week. […] All animals had free access to a high-fat powdered diet (VRF1 plus 20% lard) and all rats had access to filtered water at all times. The diets were contained in glass feeding jars with aluminum lids (Solmedia Laboratory Suppliers, Romford, Essex). […] Animals were accustomed to these conditions for at least two weeks before experimentation.
# Dosing was timed to start at approximately 08:45 so that the mid-point was approximately the time of lights out. Animals, food and water were weighed at the time of dosing. Towards the end of this baseline period, animals were weighed (to the nearest 0.1 g using an electronic top-pan balance) and allocated into 2 weight-matched treatment groups by a Statistician.
# Dosing began at approximately 08:45 h each day (0 h), i.e., so the mid-point of dosing was approximately at the time of lights out. This strategy was taken to maximize the impact of the drugs on food intake. Dosing continued for 7 consecutive days and rats were weighed (to the nearest 0.1 g) every day at 0 h. Prior to and at the completion of each dosing session animals were examined and any overt behavioral/physiological effects or other relevant observations regarding the condition of the animals was recorded manually. […] and food intake were assessed daily.
# Dosing began at approximately 08:45 h each day (0h), i.e., the mid-point of dosing was approximately at the time of lights out. Body weight, food and water intake was recorded daily at the time of dosing. All rats were observed before and after dosing and comments on condition were noted as appropriate. On the afternoon of Day 14 (approx. 16:00) animals were fasted to a timed schedule. The experiment ended the following morning on Day 15. On the morning of Day 15, final readings were undertaken 16 h post-fast (i.e., body weight measurements). Animals were then dosed (as described). Four hours later, two blood samples (20 µL and 1 mL) were taken from the lateral tail vein into tubes containing lithium heparin. The 20 µL sample was stored frozen (whole blood) prior to determination of HbAlc (Roche Tina-quant A2c Gen 3, Cobas C111). […] Animals were then terminated by a Schedule 1 method (exposure to an increasing concentration of CO2 with death confirmed by cervical dislocation). A terminal blood sample (circa 4 mL) was taken into EDTA-coated tube and a single plasma aliquot (approximately 1 mL) was stored frozen (approx. -80° C.) in a clean aliquot tube. The liver was dissected and the caudate lobe removed. Both the caudate lobe and the remaining liver was weighed and stored frozen separately (on dry ice and then transferred to a freezer at approx. -80° C.). The caudate lobe underwent further analysis of liver triglycerides. Carcasses were stored frozen (approx. -20° C.) for potential body composition analysis. Metabolic parameters including fasting glucose and insulin levels, liver triglycerides and body fat composition were determined at the end of the study.
# [3] = Food effect on the pharmacokinetics of 50 mg tablet (Example 10); details: 50 mg Compound 1 tablet
# Source text: Methods: The study used an open-label randomized 2-period crossover design in 20 healthy volunteers. Subjects were fasted overnight then randomly assigned to 1 of 2 dosing sequences, A ➔ B or B ➔ A, where A was the fasted condition and B was the fed condition. […] The fed and fasted dosing periods were separated by one week. Serial plasma samples from each period were collected for PK analysis.
# Solid phase extraction was used for sample cleanup. Stable isotope-labeled internal standards were used for corresponding analytes. Noncompartment PK parameters were calculated using Phoenix WinNonlin® software.
# [4] = Week 1 (Day 1-8), Olanzapine 3 mg/kg po
# [5] = Week 2 (Day 8-13), after olanzapine Day 1-7, 3 mg/kg po
# [6] = Week 2 (Day 8-14), continued Olanzapine 3 mg/kg po
# [7] = from Day 8, after olanzapine Day 1-7, 3 mg/kg po
smiles,measurement,setting,value
"Cc1cc2c(s1)Nc1ccccc1N=C2N1CCN(C)CC1 [Olanzapine, olanzapine]",Fat in carcass % change vs vehicle,[1],8.8%
same,Fat in carcass Difference vs vehicle,[1],1.4%
same,"Fat in carcass, Mean",[1],16.9%
same,Fat per rat % change vs vehicle,[1],12.4%
same,Fat per rat Difference vs vehicle,[1],5.2 g
same,"Fat per rat, Mean",[1],47.0 g
same,Liver Total triglycerides Mean,[1],227.46 µmol
same,Liver Total triglycerides vs vehicle,[1],85.6
same,Liver triglycerides % vs vehicle,[1],77.1%
same,"Liver triglycerides, Mean",[1],25.07 µmol/g
same,Protein in carcass % change vs vehicle,[1],-1.8%
same,Protein in carcass Difference vs vehicle,[1],-0.38%
same,"Protein in carcass, Mean",[1],20.46%
same,Protein per rat % change vs vehicle,[1],3.5%
same,Protein per rat Difference vs vehicle,[1],1.9 g
same,"Protein per rat, Mean",[1],56.9 g
same,Water in carcass % change vs vehicle,[1],-1.4%
same,Water in carcass Difference vs vehicle,[1],-0.8%
same,"Water in carcass, Mean",[1],59.9%
same,Water per rat % change vs vehicle,[1],3.6%
same,Water per rat Difference vs vehicle,[1],5.8 g
same,"Water per rat, Mean",[1],166.5 g
same,Daily food intake % change,[1]; Overall (Day 1-13),13.6%
same,Daily food intake Difference,[1]; Overall (Day 1-13),2.0 g/day
same,Daily food intake Mean,[1]; Overall (Day 1-13),16.4 g/day
same,Changes in body weights Difference vs vehicle,[1]; Overall (Day 1-14),21.5 g
same,Changes in body weights Mean,[1]; Overall (Day 1-14),33.2 g
same,"increase in body weight, previously shown in-house in this model",[2]; Olanzapine 3 mg/kg po,4-6%
same,"Averages of daily food intakes, Difference vs Vehicle (A)","[2]; Week 1 (Day 1-7), 3 mg/kg po",1.90 g/day
same,"Averages of daily food intakes, Mean","[2]; Week 1 (Day 1-7), 3 mg/kg po",17.21 g/day
same,Changes in body weights Difference vs Vehicle (A),[2]; [4],13.07 g
same,Changes in body weights Mean,[2]; [4],25.48 g
same,"Averages of daily food intakes, Difference vs Vehicle (A)",[2]; [5],1.60 g/day
same,"Averages of daily food intakes, Mean",[2]; [5],16.73 g/day
same,Changes in body weights Difference vs Vehicle (A),[2]; [6],7.55 g
same,Changes in body weights Mean,[2]; [6],16.70 g
same,"Fat in carcass, % change vs Vehicle (A)",[2]; [7],18.3%
same,"Fat in carcass, Difference vs Vehicle (A)",[2]; [7],2.4%
same,"Fat in carcass, Mean",[2]; [7],15.8%
same,"Fat per rat, % change vs Vehicle (A)",[2]; [7],22.7%
same,"Fat per rat, Difference vs Vehicle (A)",[2]; [7],8.0 g
same,"Fat per rat, Mean",[2]; [7],43.3 g
same,"Final carcass weight, % change vs Vehicle (A)",[2]; [7],4.1%
same,"Final carcass weight, Mean",[2]; [7],271.9 g
same,"Liver triglycerides (µmol total), % vs Vehicle (A)",[2]; [7],100.4%
same,"Liver triglycerides (µmol/g), % vs Vehicle (A)",[2]; [7],100.0%
same,"Liver triglycerides, Mean",[2]; [7],348 µmol total
same,"Protein in carcass, % change vs Vehicle (A)",[2]; [7],-2.4%
same,"Protein in carcass, Difference vs Vehicle (A)",[2]; [7],-0.49%
same,"Protein in carcass, Mean",[2]; [7],20.24%
same,"Protein per rat, % change vs Vehicle (A)",[2]; [7],1.6%
same,"Protein per rat, Difference vs Vehicle (A)",[2]; [7],0.9 g
same,"Protein per rat, Mean",[2]; [7],55.0 g
same,"Water in carcass, % change vs Vehicle (A)",[2]; [7],-3.6%
same,"Water in carcass, Difference vs Vehicle (A)",[2]; [7],-2.2%
same,"Water in carcass, Mean",[2]; [7],60.4%
same,"Water per rat, % change vs Vehicle (A)",[2]; [7],0.3%
same,"Water per rat, Difference vs Vehicle (A)",[2]; [7],0.6 g
same,"Water per rat, Mean",[2]; [7],163.9 g
NC[C@@H]1OCCc2ccsc21 [metabolite],geometric mean ratio for AUC0-∞ (fed/fasted),[3],98.29%
same,geometric mean ratio of Cmax (fed/fasted),[3],94.77%
same,"ratio of N-desmethyl active metabolite to parent Compound 1, fed versus fasted",[3],no change

# Reference: patent publication US20230241024A1, “METHODS OF TREATING METABOLIC DISORDERS” (Sunovion Pharmaceuticals Inc., priority 2021, published 2023)
